Values after ≈ are worked out from the molar mass of the structure shown. Where two headings read alike, the source gives them in different places.
Columns and labels:
[1] = tested on: human gastric cancer cells MKN-45; test: Cell proliferation assay (CCK-8); assay type: cell-based; details: MKN-45, 72 h
Source text: (§1) CCK-8 method: The CCK-8 method is a highly sensitive, non-radioactive colorimetric assay for the determination of the number of viable cells in cell proliferation or cytotoxicity assays. The orange formazan dye produced by the bioreduction of CCK-8 by intracellular dehydrogenase is soluble in the cell culture medium, and the amount of formazan dye produced is proportional to the number of living cells. The kit used in this method is the tetrazolium salt-WST-8 (2-(2-methoxy-4-nitrophenyl)-3-(4-nitrophenyl)-5-(2,4-disulfophenyl)-2H-tetrazolium monosodium salt) developed by Dojindo Chemical Research Institute (Dojindo), which is capable of being reduced to a water-soluble formazan dye in the presence of the electronic carrier 1-Methoxy PMS.
(§2) Human cervical cancer cells Hela, pancreatic cancer cells PANC-1, esophageal cancer cells Eca-109, human leukemia cells K562, human lung cancer cells A549, human liver cancer cells HepG2, human gastric cancer cells MKN-45, human breast cancer cells MCF7 were cultured in DMEM medium containing 10% FBS (fetal bovine serum), 100 U/mL penicillin and 100 μg/ml streptomycin. Hepatocellular carcinoma cells Bel-7402 were cultured in RPMI-1640 medium containing 10% FBS (fetal bovine serum), 100 U/ml penicillin and 100 μg/ml streptomycin. All cells were placed in a cell culture incubator at 37° C. with 5% CO2. Cells fluid was changed every 3-5 days, and after 80% cell fusion, trypsin digestion and passaging were performed to keep the cells in good logarithmic growth phase.
(§3) All the samples to be tested were dissolved in DMSO.
(§4) Cells in logarithmic growth phase were inoculated in 96-well plates with 5000 cells/well respectively, and after 24 h of incubation, samples were added (final concentrations as shown in the table), and biplicate wells were set up for each sample. The amount of solvent of DMSO was not higher than 2‰. After 72 h, 10 μL of CCK-8 solution was added to each well and incubated for 1.5˜3 h at 37° C. The OD value at 450 nm was measured on an plate reader. Inhibition rate (%)=(1−[(OD450 dosed well−OD450 blank well)/(OD450 control well−OD450 blank well)])×100%
(§5) The fitted IC50 values were calculated using the log (inhibitor) vs. response—Variable slop analysis method in GraphPad Prism software.

[2] = tested on: human liver cancer cells HepG2; test: Cell proliferation assay (CCK-8); assay type: cell-based; details: HepG2, 72 h
Source text: as §1, §2, §3, §4, §5

[3] = tested on: human breast cancer cells MCF7; test: Cell proliferation assay (CCK-8); assay type: cell-based; details: MCF7, 72 h
Source text: as §1, §2, §3, §4, §5

[4] = tested on: human leukemia cells K562; test: Cell proliferation assay (CCK-8); assay type: cell-based; details: K562, 72 h
Source text: as §1, §2, §3, §4, §5

[5] = tested on: Human cervical cancer cells Hela; test: Cell proliferation assay (CCK-8); assay type: cell-based; details: 72 h
Source text: as §1, §2, §3, §4, §5

[6] = tested on: human lung cancer cells A549; test: Cell proliferation assay (CCK-8); assay type: cell-based; details: A549, 72 h
Source text: as §1, §2, §3, §4, §5

[7] = Pharmacokinetic evaluation (plasma BFA by LC/MS/MS); assay type: in vivo, SD rats; details: for AUCINF / AUClast / Cmax / MRTINF / T1/2 / Tmax: iv
Method: SD rats were weighed after an overnight fasting of 15 hours and randomly grouped according to weights. The appropriate amount of the compound was accurately weighed, and a final volume of 5% DMSO, 10% Solutol, and 85% Saline was added and vortexed or sonicated to make a thorough mixing to provide a 4 mg/mL solution for intravenous administration (iv.). Venous blood was taken at the time points of 0, 0.083 (iv. group only), 0.25, 0.5, 1.0, 2.0, 5.0, 7.0 and 24 h, via jugular vein or other suitable means, with approximately 0.20 mL of each sample collected, anticoagulated with sodium heparin (with 6.25 μL of 200 mM DDVP/tube added), and placed on ice after collection. The plasma was separated by centrifugation within 2 hours (centrifugal force 6800 g, 6 min, 2-8° C.). The collected plasma samples were stored in a −70° C. refrigerator before analysis, and the remaining plasma samples after analysis were kept stored at −20° C. or −70° C. until LC/MS/MS analysis was performed. The accuracy of QC samples was evaluated while analyzing the samples, and more than 66% of the QC samples were required to have an accuracy between 80-120%. When plasma drug concentration-time curves were plotted, BLQ were recorded as 0. For the calculation of pharmacokinetic parameters, the concentration before dosing was counted as 0; BLQ before Cmax (including “No peak”) was counted as 0; BLQ after Cmax (including “No peak”) was not included in the calculation. Pharmacokinetic parameters such as AUC(0-t), T1/2, Cmax, Tmax and MRT were calculated according to the blood concentration data of BFA at different time points using WinNonlin.

[8] = tested on: pancreatic cancer cells PANC-1; test: Cell proliferation assay (CCK-8); assay type: cell-based, human; details: PANC-1, 72 h
Source text: as §1, §2, §3, §4, §5

[9] = tested on: esophageal cancer cells Eca-109; test: Cell proliferation assay (CCK-8); assay type: cell-based, human; details: Eca-109, 72 h
Source text: as §1, §2, §3, §4, §5

[10] = Solubility test (shake 37° C., 24 h, HPLC); assay type: physicochemical; details: x ± s; for solubility at 24 h: thermodynamic from solid
Method: The term “solubility” refers to the mass of solute dissolved when a solid substance reaches saturation state in 100 g solvent at a certain temperature. Solubility test refer to the following references: ZHU Shang-bin, et al. Preparation, characterization, and physicochemical properties of arbutin phospholipid complex[J]. Chinese Traditional and Herbal Drugs. 2020, 1-10.
Methods: Excess BFA and the compounds disclosed herein were added to 10 mL of three solvents, methanol, acetone and 5% DMSO+95% H2O, respectively, and shaken on a shaker at 37° C. at 100 r/min for 24 h. After 24 h, the samples were centrifuged at 15 000 r/min for 15 min to remove the undissolved compounds. The supernatant was filtered using a 0.45 μm membrane filter. The supernatant was appropriately diluted with methanol and contents of the compounds were determined by HPLC method to calculate the solubility.

Kunming breed mice = test: Acute toxicity test, single intragastric administration; assay type: in vivo
Source text: Objective: Observation of toxic effects of compounds after a single intragastric administration (ig.) to mice
1) Agents: Compounds disclosed herein were formulated to a suitable concentration.
2) Animals: Kunming breed mice, weight 18-22 g, male.

[11] = SD rats, 20 mg/kg, blood concentration of BFA
[12] = Sprague-Dawley, rat, in vivo, 30 mg/kg
[13] = aqueous with cosolvent or surfactant or cyclodextrin, 5% DMSO + 95% H2O, n = 3, read-out: Solubility, 5% DMSO + 95% H2O
[14] = organic solvent or mixture, acetone, n = 3, read-out: Solubility, Acetone
[15] = organic solvent or mixture, methanol, n = 3, read-out: Solubility, Methanol
[16] = mice, single ig., high and low doses (BFA effective amount conversion)
[17] = mice, single ig., high and low doses (BFA effective amount conversion), within 72 h

| SMILES | IC50 ([1]; Homo sapiens) | IC50 ([2]; Homo sapiens) | IC50 ([3]; Homo sapiens) | IC50 ([4]; Homo sapiens) | IC50 ([5]; Homo sapiens) | IC50 ([6]; Homo sapiens) | IC50 ([8]; Homo sapiens) | IC50 ([9]; Homo sapiens) | solubility at 24 h [10, 13] | solubility at 24 h [10, 14] | solubility at 24 h [10, 15] | Mental condition after administration (Kunming breed mice; [16]) | Death within 72 h (Kunming breed mice; [17]) | also measured |
| --- | --- | --- | --- | --- | --- | --- | --- | --- | --- | --- | --- | --- | --- | --- |
| C[C@H]1CCC/C=C/[C@@H]2C[C@H](O)C[C@H]2[C@H](O)/C=C/C(=O)O1 [BFA, Brefeldin A] | – | – | – | – | – | – | – | – | – | – | – | – | – | IC50 [1]: 100 to 1000 nM; IC50 [2]: 100 to 1000 nM; IC50 [3]: < 100 nM; IC50 [4]: 100 to 1000 nM; IC50 [5]: 100 to 1000 nM; IC50 [6]: 100 to 1000 nM; AUCINF [7, 11]: 4448.31 ng·h/mL; AUClast [7, 11]: 4450.24 ng·h/mL; Cmax [7, 11]: 5744.26 ng/mL; MRTINF [7, 11]: 11.4 min; T1/2 [7, 11]: 25.2 min; Tmax [7, 11]: 15 min; IC50 [8]: < 100 nM; IC50 [9]: 100 to 1000 nM; Solubility, 5% DMSO + 95% H2O ([10]; 5% DMSO + 95% H2O, n = 3): 0.085 ± 0.03 mg/mL; Solubility, Acetone ([10]; acetone, n = 3): 3.13 ± 1.24 mg/mL (≈ 11.2 mM); Solubility, Methanol ([10]; methanol, n = 3): 3.13 ± 1.24 mg/mL (≈ 11.2 mM); Mortality within 24 h (Kunming breed mice; mice, single ig., high dose 1000 mg/kg, within 24 h): all animals died; Animals died within 72 h (Kunming breed mice; mice, single ig., low dose 750 mg/kg, within 72 h): ⅔ |
| C[C@H]1CCC/C=C/[C@@H]2C[C@H](OC(=O)OCc3cccnc3)C[C@H]2[C@H](O)/C=C/C(=O)O1 [Compound 1, BFA-7-(pyridine-3-ylmethyl)carbonate] | < 100 nM | < 100 nM | 100 to 1000 nM | 100 to 1000 nM | 100 to 1000 nM | < 100 nM | 100 to 1000 nM | < 100 nM | 2.73 ± 0.21 mg/mL | 68.7 ± 2.53 mg/mL (≈ 165 mM) | 74.3 ± 2.52 mg/mL (≈ 179 mM) | good mental conditions | – | AUCINF [7, 12]: 5763.29 ng·h/mL; AUClast [7, 12]: 5766.31 ng·h/mL; Cmax [7, 12]: 7192.20 ng/mL; MRTINF [7, 12]: 11.4 min; T1/2 [7, 12]: 15 min; Tmax [7, 12]: 15 min; Death within 72 h (Kunming breed mice; mouse, in vivo): no death |
| COc1ccc(COC(=O)O[C@@H]2C[C@H]3[C@H](O)/C=C/C(=O)O[C@@H](C)CCC/C=C/[C@@H]3C2)cn1 [Compound 6] | < 100 nM | 100 to 1000 nM | 100 to 1000 nM | 100 to 1000 nM | 100 to 1000 nM | < 100 nM | 100 to 1000 nM | 100 to 1000 nM | 2.95 ± 1.61 mg/mL | 70.6 ± 1.44 mg/mL (≈ 158 mM) | 70.4 ± 3.35 mg/mL (≈ 158 mM) | good mental conditions | no death | – |
| C[C@H]1CCC/C=C/[C@@H]2C[C@H](OC(=O)OCc3cnc4ccccc4c3)C[C@H]2[C@H](O)/C=C/C(=O)O1 [Compound 11, BFA-7-(quinoline-3-ylmethyl)carbonate] | 100 to 1000 nM | 100 to 1000 nM | 100 to 1000 nM | 100 to 1000 nM | 100 to 1000 nM | 100 to 1000 nM | < 100 nM | < 100 nM | 2.65 ± 1.8 mg/mL | 67.6 ± 2.74 mg/mL (≈ 145 mM) | 69.3 ± 4.35 mg/mL (≈ 149 mM) | good mental conditions | no death | – |
| C[C@H]1CCC/C=C/[C@@H]2C[C@H](OC(=O)OCc3cccnc3)C[C@H]2[C@H](OC(=O)OCc2cccnc2)/C=C/C(=O)O1 [Compound D, reference compound] | 1000 to 10000 nM | 1000 to 10000 nM | 100 to 1000 nM | 100 to 1000 nM | 1000 to 10000 nM | 100 to 1000 nM | 1000 to 10000 nM | 1000 to 10000 nM | 0.51 ± 0.13 mg/mL | 21.2 ± 1.12 mg/mL (≈ 38.4 mM) | 20.4 ± 1.41 mg/mL (≈ 37.1 mM) | – | – | Blood concentrations detected within 1 h ([7]; rat, in vivo, 40 mg/kg): low blood concentrations; Drug in blood after 1 h ([7]; rat, in vivo, 40 mg/kg): basically undetectable |
